Values after ≈ are worked out from the molar mass of the structure shown.
Assays:
[1] = Aqueous solubility; format: physicochemical
[2] = solution pH 8, stored at room temperature for approximately 16 months

Compound	solubility ([1]; water (aqueous), room temperature) [µg/mL]	compound I choline salt converted to compound II [2]	aqueous solubility compared with free acid form and compound II [1]	solubility in water ([1]; in water)
C#CCOc1ccc(Nc2nc(Nc3ccc(C)c(S(N)(=O)=O)c3)ncc2F)cc1 [Compound II, N2-(3-aminosulfonyl-4-methylphenyl)-5-fluoro-N4-[4-(prop-2-ynyloxy)phenyl]-2,4-pyrimidinediamine]	~0.9 (≈ 2.11 µM)	–	–	–
C#CCOc1ccc(Nc2nc(Nc3ccc(C)c(S(=O)(=O)NC(=O)CC)c3)ncc2F)cc1.C[N+](C)(C)CCO [VII, 5-Fluoro-N2-[4-methyl-3-(N-propionylaminosulfonyl)phenyl]-N4-[4-(2-propynyloxy)phenyl]-2,4-pyrimidinediamine Choline Salt]	–	about 5%	significantly higher aqueous solubility than both its free acid form and compound II	about 9.1 mg/mL

Reference: patent US20140206708A1, “COMPOSITION FOR OPHTHALMIC ADMINISTRATION” (Rigel Pharmaceuticals, Inc., priority 2013, published 2014)
